# Molecular target: T1, IGFR kinase (Homo sapiens, UniProt P08069)
# T1 construct: purchased Millipore
# Experiment: Enzyme assay (c), IGFR kinase, Caliper LabChip
# Assay type: biochemical
# Conditions: 30 nM IGFR kinase, 6 uM ATP, 3 uM peptide mix; read-out: IGFR IC50
# T1 sequence (P08069 31-1367): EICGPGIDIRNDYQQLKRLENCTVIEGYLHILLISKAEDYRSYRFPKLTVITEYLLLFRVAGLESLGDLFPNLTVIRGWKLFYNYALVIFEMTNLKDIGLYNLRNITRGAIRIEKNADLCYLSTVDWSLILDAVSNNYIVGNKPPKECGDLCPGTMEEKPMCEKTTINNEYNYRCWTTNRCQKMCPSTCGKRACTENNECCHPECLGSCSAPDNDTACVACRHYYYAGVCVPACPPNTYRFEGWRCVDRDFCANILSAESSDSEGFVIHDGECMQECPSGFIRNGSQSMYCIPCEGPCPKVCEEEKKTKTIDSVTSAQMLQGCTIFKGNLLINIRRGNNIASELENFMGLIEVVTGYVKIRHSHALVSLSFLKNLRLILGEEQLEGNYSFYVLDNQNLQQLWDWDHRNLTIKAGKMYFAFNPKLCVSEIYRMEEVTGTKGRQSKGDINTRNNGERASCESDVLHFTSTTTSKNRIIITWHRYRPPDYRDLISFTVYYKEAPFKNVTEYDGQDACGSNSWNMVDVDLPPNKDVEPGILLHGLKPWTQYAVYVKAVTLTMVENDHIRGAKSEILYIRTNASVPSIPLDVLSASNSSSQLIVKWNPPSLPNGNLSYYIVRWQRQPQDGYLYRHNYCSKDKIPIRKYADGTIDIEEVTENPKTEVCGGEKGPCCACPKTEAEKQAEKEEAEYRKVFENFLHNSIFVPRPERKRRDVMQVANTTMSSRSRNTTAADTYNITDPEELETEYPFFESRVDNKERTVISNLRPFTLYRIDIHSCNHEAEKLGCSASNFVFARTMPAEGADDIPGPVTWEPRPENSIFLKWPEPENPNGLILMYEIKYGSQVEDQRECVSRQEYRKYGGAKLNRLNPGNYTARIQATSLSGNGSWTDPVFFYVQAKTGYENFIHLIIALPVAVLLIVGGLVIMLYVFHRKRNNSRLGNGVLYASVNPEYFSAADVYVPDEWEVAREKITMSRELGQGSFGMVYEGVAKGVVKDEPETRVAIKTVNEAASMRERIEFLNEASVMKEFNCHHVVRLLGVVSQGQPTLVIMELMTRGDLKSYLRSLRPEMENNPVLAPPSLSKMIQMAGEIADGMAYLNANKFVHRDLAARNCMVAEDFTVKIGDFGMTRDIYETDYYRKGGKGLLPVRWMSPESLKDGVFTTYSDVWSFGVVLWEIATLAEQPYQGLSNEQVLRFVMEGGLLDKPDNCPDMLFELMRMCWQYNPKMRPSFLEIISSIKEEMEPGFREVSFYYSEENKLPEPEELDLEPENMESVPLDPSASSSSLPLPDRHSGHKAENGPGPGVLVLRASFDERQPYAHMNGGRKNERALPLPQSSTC
row,SMILES,IC50
1,"COc1cc(N2CCN(C(=O)[C@H](C)OC)CC2)ccc1Nc1ncc(Cl)c(-c2cnc3ccccn23)n1 [Example 25.3, (2S)-1-[4-[4-[(5-chloro-4-imidazo[1,2-a]pyridin-3-yl-pyrimidin-2-yl)amino]-3-methoxy-phenyl]piperazin-1-yl]-2-methoxy-propan-1-one]",14 nM
2,"COc1cc(OC2CN(C(=O)N(C)CCO)C2)ccc1Nc1ncc(Cl)c(-c2cnc3ccccn23)n1 [Example 68, 3-[4-[(5-chloro-4-imidazo[1,2-a]pyridin-3-yl-pyrimidin-2-yl)amino]-3-methoxy-phenoxy]-N-(2-hydroxyethyl)-N-methyl-azetidine-1-carboxamide]",24 nM
3,"COc1cc(N2CCCOCC2)ccc1Nc1ncc(Cl)c(-c2cnc3ccccn23)n1 [Example 3.48, 5-chloro-4-imidazo[1,2-a]pyridin-3-yl-N-[2-methoxy-4-(1,4-oxazepan-4-yl)phenyl]pyrimidin-2-amine]",25 nM
4,"COc1ccc(N2CCN(C(N)=O)CC2)cc1Nc1ncc(Cl)c(-c2cnc3ccccn23)n1 [Example 55, 4-[3-[(5-chloro-4-imidazo[1,2-a]pyridin-3-yl-pyrimidin-2-yl)amino]-4-methoxy-phenyl]piperazine-1-carboxamide]",33 nM
5,"COc1cc(N2CCN(C(C)=O)C[C@@H](O)C2)ccc1Nc1ncc(Cl)c(-c2cnc3ccccn23)n1 [Example 3.40, 1-[(6S)-4-[4-[(5-chloro-4-imidazo[1,2-a]pyridin-3-yl-pyrimidin-2-yl)amino]-3-methoxy-phenyl]-6-hydroxy-1,4-diazepan-1-yl]ethanone]",24 nM
6,"CCNCC(=O)N1CCN(c2ccc(Nc3ncc(Cl)c(-c4cnc5ccccn45)n3)c(OC)c2)CC1 [Example 24.11, 1-[4-[4-[(5-chloro-4-imidazo[1,2-a]pyridin-3-yl-pyrimidin-2-yl)amino]-3-methoxy-phenyl]piperazin-1-yl]-2-ethylamino-ethanone]",15 nM
7,"COc1cc(N2CCN(C(=O)C(C)(C)O)CC2)ccc1Nc1ncc(Cl)c(-c2cnc3ccccn23)n1 [Example 25.6, 1-[4-[4-[(5-chloro-4-imidazo[1,2-a]pyridin-3-yl-pyrimidin-2-yl)amino]-3-methoxy-phenyl]piperazin-1-yl]-2-hydroxy-2-methyl-propan-1-one]",11 nM
8,"COc1cc(N(C)CC(=O)N(C)C)ccc1Nc1ncc(Cl)c(-c2cnc3c(F)cccn23)n1 [Example 225, 2-[4-[[5-chloro-4-(8-fluoroimidazo[1,2-a]pyridin-3-yl)pyrimidin-2-yl]amino]-3-methoxy-N-methyl-anilino]-N,N-dimethyl-acetamide]",130 nM
9,"COc1cc(N2CCN(CCO)CC2)ccc1Nc1ncc(C(F)(F)F)c(-c2cnc3ccccn23)n1 [Example 109, 2-[4-[4-[[4-imidazo[1,2-a]pyridin-3-yl-5-(trifluoromethyl)pyrimidin-2-yl]amino]-3-methoxy-phenyl]piperazin-1-yl]ethanol]",16 nM
10,"COc1cc(N2CCNCC2)ccc1Nc1ncc(Cl)c(-c2cnc3ccc(C#N)cn23)n1 [Example 266, 3-[5-chloro-2-(2-methoxy-4-piperazin-1-yl-anilino)pyrimidin-4-yl]imidazo[1,2-a]pyridine-6-carbonitrile]",29 nM
11,"CC(=O)N1CCN(c2cccc(Nc3ncc(Cl)c(-c4cnc5ccccn45)n3)c2C)CC1 [Example 3.37, 1-[4-[3-[(5-chloro-4-imidazo[1,2-a]pyridin-3-yl-pyrimidin-2-yl)amino]-2-methyl-phenyl]piperazin-1-yl]ethanone]",12 nM
12,"COc1ccc(OC[C@H]2CCCN2)cc1Nc1ncc(Cl)c(-c2cnc3ccccn23)n1 [Example 6.4, 5-chloro-4-imidazo[1,2-a]pyridin-3-yl-N-[2-methoxy-5-[[(2R)-pyrrolidin-2-yl]methoxy]phenyl]pyrimidin-2-amine]",12 nM
13,"CNC(=O)[C@H](C)Oc1ccc(Nc2ncc(Cl)c(-c3cnc4c(F)cccn34)n2)c(OC)c1 [Example 218, (2S)-2-[4-[[5-chloro-4-(8-fluoroimidazo[1,2-a]pyridin-3-yl)pyrimidin-2-yl]amino]-3-methoxy-phenoxy]-N-methyl-propanamide]",7 nM
14,"COCCCNCc1ccc(Nc2ncc(Cl)c(-c3cnc4ccccn34)n2)c(OC)c1 [Example 21.9, 5-chloro-4-imidazo[1,2-a]pyridin-3-yl-N-[2-methoxy-4-[(3-methoxypropylamino)methyl]phenyl]pyrimidin-2-amine]",17 nM

# Results, then the molecule that gave them:
row,IC50,SMILES
1,21 nM,"COc1cc(CC(=O)NC2CCNC2)ccc1Nc1ncc(Cl)c(-c2cnc3ccccn23)n1 (centres unmarked) [Example 35, 2-[4-[(5-chloro-4-imidazo[1,2-a]pyridin-3-yl-pyrimidin-2-yl)amino]-3-methoxy-phenyl]-N-pyrrolidin-3-yl-acetamide]"
2,12 nM,"COc1cc(O[C@H]2CCN(C(=O)C(C)O)C2)ccc1Nc1ncc(Cl)c(-c2cnc3ccccn23)n1 (mixture of isomers) [Example 15, 1-[(3S)-3-[4-[(5-chloro-4-imidazo[1,2-a]pyridin-3-yl-pyrimidin-2-yl)amino]-3-methoxy-phenoxy]pyrrolidin-1-yl]-2-hydroxy-propan-1-one]"
3,13 nM,"COc1cc(O[C@@H]2CCN(C(=O)[C@H](C)O)C2)ccc1Nc1ncc(Cl)c(-c2cnc3ccccn23)n1 [Example 12A, (2S)-1-[(3R)-3-[4-[(5-chloro-4-imidazo[1,2-a]pyridin-3-yl-pyrimidin-2-yl)amino]-3-methoxy-phenoxy]pyrrolidin-1-yl]-2-hydroxy-propan-1-one]"
4,14 nM,"COc1cc(OC[C@@H]2CCCN2)ccc1Nc1ncc(Cl)c(-c2cnc3ccccn23)n1 [Example 6.2, 5-chloro-4-imidazo[1,2-a]pyridin-3-yl-N-[2-methoxy-4-[[(2S)-pyrrolidin-2-yl]methoxy]phenyl]pyrimidin-2-amine]"
5,10 nM,"COc1cc(C2CCNCC2)ccc1Nc1ncc(F)c(-c2cnn3ccccc23)n1 [Example 173, 5-fluoro-N-[2-methoxy-4-(4-piperidyl)phenyl]-4-pyrazolo[1,5-a]pyridin-3-yl-pyrimidin-2-amine]"
6,56 nM,"COc1cc(N2CCOCC2)ccc1Nc1ncc(F)c(-c2cnc3ccccn23)n1 [Example 79, 5-fluoro-4-imidazo[1,2-a]pyridin-3-yl-N-(2-methoxy-4-morpholino-phenyl)pyrimidin-2-amine]"
7,14 nM,"COc1cc(O[C@H]2CCNC2)ccc1Nc1ncc(Cl)c(-c2cnc3ccccn23)n1 [Example 6.6, 5-chloro-4-imidazo[1,2-a]pyridin-3-yl-N-[2-methoxy-4-[(3S)-pyrrolidin-3-yl]oxy-phenyl]pyrimidin-2-amine]"
8,2 nM,"COc1cc(C2CCN(CC(=O)N(C)C)CC2)ccc1Nc1ncc(Cl)c(-c2cnc3c(F)cccn23)n1 [Example 216, 2-[4-[4-[[5-chloro-4-(8-fluoroimidazo[1,2-a]pyridin-3-yl)pyrimidin-2-yl]amino]-3-methoxy-phenyl]-1-piperidyl]-N,N-dimethyl-acetamide]"
9,16 nM,"COc1cc(C2CCN(C(=O)CO)CC2)ccc1Nc1ncc(C)c(-c2cnn3ccccc23)n1 [Example 163, 2-hydroxy-1-[4-[3-methoxy-4-[(5-methyl-4-pyrazolo[1,5-a]pyridin-3-yl-pyrimidin-2-yl)amino]phenyl]-1-piperidyl]ethanone]"

# Source: US20100105655A1, “NOVEL COMPOUNDS 515” (ASTRAZENECA AB, priority 2008, published 2010)
